These results are taken from patent US6815425B1 (The United States of America as represented by the …, priority 1999, dated 2004).

Entries after “also recorded” stand apart in the source; their conditions may differ.

The subject of series [1] is immobility in the Porsolt swim test. As to conditions: administered to rats; cited from earlier work.
In a further series the test system is forebrain neurons. Nature of the series: Glutamate-induced neurotoxicity, colorimetric MTT assay, cultured forebrain neurons. In kind it is cell-based, rat. The procedure: (§1) Primary cultures of neurons derived from the forebrains and spinal cords of E15 fetuses were prepared and maintained in culture for eight days. […] Extending these observations, we compared the neuroprotective efficacy of EEP and TRH.
On the technique in general: Tetrazolium assays rely on reduction of a dye to a coloured formazan, in cell work by metabolically active cells.

The subject of series [2] is glutamate-stimulated Ca2+ dynamics. Put plainly: Glutamate-stimulated Ca2+ dynamics after pre-incubation. It counts as cell-based.
In the next series the test system is locomotor activity. As to conditions: administered to rats; cited from earlier work.
The conditions of series [3]: cited from earlier work.
For a further series, the system named is spinal cord neurons. Put plainly: Glutamate-induced neurotoxicity, colorimetric MTT assay, cultured spinal cord neurons. In kind it is cell-based, rat. As to conditions: 100 μM glutamate 30 min. As to the method:
as §1

The next series addresses T1, TRH receptor (Homo sapiens, UniProt P34981).
T1 sequence (P34981 1-398): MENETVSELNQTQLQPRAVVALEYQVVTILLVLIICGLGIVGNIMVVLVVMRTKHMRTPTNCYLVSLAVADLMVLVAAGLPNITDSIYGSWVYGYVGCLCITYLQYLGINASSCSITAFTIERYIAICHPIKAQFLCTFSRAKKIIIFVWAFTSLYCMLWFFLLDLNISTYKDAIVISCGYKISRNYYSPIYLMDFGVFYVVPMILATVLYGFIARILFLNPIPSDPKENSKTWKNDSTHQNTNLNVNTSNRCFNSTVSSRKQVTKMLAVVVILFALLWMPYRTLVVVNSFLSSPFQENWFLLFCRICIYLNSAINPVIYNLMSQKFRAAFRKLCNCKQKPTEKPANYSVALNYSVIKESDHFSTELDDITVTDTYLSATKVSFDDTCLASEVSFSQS
As to conditions: reported; cited from earlier work.

The conditions of series [4]: cited from earlier work; for plasma levels of thyroid hormone: in vivo.
The test system of series [5] is serum enzyme thyroliberinase. As to conditions: cited from earlier work.
The conditions of series [6]: compared with TRH; cited from earlier work.
The test system of series [7] is cultured forebrain neurons. Put plainly: Neuroprotection by EEP with or without SPBN in cultured forebrain neurons exposed to Glu, MTT assay. It counts as cell-based, rat. As to conditions: SPBN 10 mM where present, Glu 100 μM, 1 h. The procedure: Neuroprotection evident at higher concentrations of the tripeptide is further enhanced by the addition of the nitrone. Percent neuroprotection=100×((viabilitytest−vibilitymean Glu))/(viabilitymean control−viabilitymean Glu)). Neuroprotection was then assessed by conducting the colorimetric MTT assay.

The conditions of series [8]: rats, intraperitoneal 1.0 mg/kg; cited from earlier work.
A further series has as its system focal ischemia. As to conditions: rat; also when given 3 hours or 5 hours after start of recirculation (temporary model); cited from earlier work.
For a further series, the system named is volume of necrosis. As to conditions: administered 15 min prior or 30 min post TBI; preliminary studies; cited from earlier work.
For series [9] the following is noted: animal studies / rodents; cited from earlier work.
For series [10] the following is noted: cited from earlier work. This is another data set of the same source.
Another series has as its system striatal lesions. As to conditions: striatal injections; cited from earlier work.

Take pGLU-GLU-PRO-NH2 [EEP]: the “immobility in the Porsolt swim test” value in series [1] was “decreases”. In addition, in the series with forebrain neurons (500 μM EEP, 100 μM glutamate 30 min, n=7), the “reduction of Glu-induced toxicity” value is 29.8±5.6%. The “neuroprotection (reduction of Glu-induced toxicity)” value with forebrain neurons (1 mM EEP, 100 μM glutamate 30 min, n=7) is given as 54.1±5.3%. Besides, the “neuroprotective efficacy / potency relative to TRH” value with forebrain neurons (EEP compared with TRH, neuron type not stated) is “over three times as effective as TRH; also recorded: three times the neuroprotective potency of TRH”. For the same compound, in [2], the “effect on glutamate-stimulated Ca2+ dynamics” value was “does not affect”. Besides, the locomotor activity result in the series on locomotor activity is reported as “increases”. Moreover, the “degradation in human serum” value in series [3] (human serum) was “not degraded at all”. In addition, in the series with spinal cord neurons (500 μM EEP, n=7), the “reduction of Glu-induced toxicity” value worked out at 20±2.0%. Moreover, the “neuroprotection (reduction of Glu-induced toxicity)” value with spinal cord neurons (1 mM EEP, n=8) was 38.9±4.9%. In addition, the “affinity for the TRH receptor” value on TRH receptor is listed as “low affinity”. In addition, the “efficacy as a releaser of thyroid stimulating hormone or triiodothyronine” value in [4] (compared to thyrotropin releasing hormone) is on record as “minimal efficacy”. In addition, the “plasma levels of thyroid hormone” value in series [4] is given as “does not elivate”. For the same compound, in [5], the “hydrolysis by serum enzyme thyroliberinase” value is “not hydrolyzed”. Also, the “stability in follicular fluid” value in [6] is recorded as “more stable than TRH”. Besides, in series [7] (EEP 300 μM), the “Percent Neuroprotection” value came out at 13.321 ± 7.319%. Moreover, in series [7] (EEP 1000 μM), the “Percent Neuroprotection” value turned out to be 35.784 ± 15.431%. In series [8], the “increase of EEP level in amygdala” value was 7 fold, the “increase of EEP level in cortex” value is 14 fold, the “increase of EEP level in the eye” value is “Over one hundred” and the “increase of EEP level in the hypothalamus” value was 2 fold. In series [8], the “increase of EEP level in the medulla” value was 4 fold and the “increase of EEP level in the pituitary” value is recorded as 11 fold.
With `CC(C)(C)[N+]([O-])=Cc1ccc(S(=O)(=O)[O-])cc1S(=O)(=O)[O-].[Na+].[Na+]` [NXY-059], the “efficacy in temporary and permanent focal ischemia” value with focal ischemia was “effective”. For the same compound, in the series with volume of necrosis, the volume of necrosis entry is recorded as “effective in decreasing volume of necrosis”.
On to `CC(C)(C)[N+]([O-])=Cc1ccccc1` [PBN, α-Phenyl-N-tert-butylnitrone], for which the toxicity entry in [9] is listed as “significant toxicity at high doses; also recorded: toxic in rodents at high doses”.
On to `CC(C)(C)[N+]([O-])=Cc1ccccc1S(=O)(=O)O` [SPBN, N-tert-Butyl-α-(2-sulfophenyl)nitrone], for which the “solubility in aqueous solutions” value in series [10] is reported as “soluble”. Also, the toxicity result in series [9] is reported as “without significant toxicity; also recorded: Toxicity has not been a problem”. In addition, the “volume of lesions induced by NMDA, kainic acid, AMPA, MPP+, 3-acetyl pyridine and malonate” value with striatal lesions is “decreasing the volume of the lesions”.
As to `NC(=O)[C@@H]1CCCN1C(=O)[C@H](Cc1cnc[nH]1)NC(=O)[C@@H]1CCC(=O)N1` [TRH, pyroglutamate-histidine-proline-amide, reference compound], the “effect on glutamate-mediated neurotoxicity” value with forebrain neurons is reported as “relatively little effect”. Further, the “effect on glutamate-stimulated Ca2+ dynamics” value in series [2] is “clearly does”. Further, in [3] (injected, blood), the “hydrolysis by pyroglutamylpeptidase II found in blood” value was “rapidly hydrolyzed”. The “plasma levels of thyroid hormone” value in series [4] is recorded as “elevates”. Further, the “hydrolysis by serum enzyme thyroliberinase” value in [5] is listed as “hydrolyzed”.
